# Measured values reported in US20050074777A1, “Novel cell-surface estrogen receptor and related compositions and methods” (priority 2002, published 2005).
# “Also recorded” adds a separate entry of the source.
# What was measured:
# ERK1/2 phosphorylation [1] = details: neocortical explants (Singh, 2000); cited from earlier work
# [2] = system: ER-X (plasma-membrane estrogen binding site of P7 ERKO neocortex); test: Specificity (competition) of 3H-estradiol binding in Percoll-purified P7 ERKO neocortical membranes; set-up: species or system mouse; details: 2 nM 3H-estradiol, 18 hours at 4° C.
# Protocol: Binding of ^3H estradiol to Percoll®-purified plasma-membranes from P7 ERKO and wild-type mouse neocortex. (a) Identical amounts of membrane protein (50 μg/tube) were incubated with varying concentrations of ^3H estradiol (0.3-8 nM) for 18 hours at 4° C. The reaction was terminated by addition of hydroxylapatite (HAP). The membranes and HAP were sedimented by centrifugation in a microfuge, and the pellet washed 4 times to remove free steroid. Radioactivity in the pellets was extracted with ethanol and counted. […] (b) Specificity of the binding site in Percoll®-purified membranes from P7 ERKO mouse neocortex. […] Bound ^3H estradiol was separated by sedimentation with HAP and counted at an efficiency of 50%. Data represent the number of bound counts (after subtraction of HAP-only blank control tubes, containing no membrane protein) expressed as the means +/−S.D. of triplicate determinations. The horizontal dashed line indicates the level of non-specific binding observed in the presence of 1 μM DES. Estrogen binding assay. Duplicate aliquots of 1 mg each of protein lysate from ERKO P7 neocortex or wild-type adult uterus were pre-cleared for 30 minutes using anti-rabbit-IgG-coated magnetic beads (Dynal AS). Pre-cleared protein lysates were immunoprecipitated with anti-ER-α antibodies (6F11, Novocastra; or MC20, Santa Cruz) at 4° C. overnight. […] NEN Life Sciences, Boston, Mass.) at 4° C. for 18 hours. The incubation was terminated by adsorption of the binding sites onto an equal volume of hydroxylapatite (HAP) slurry in TESD buffer. HAP pellets were washed four times with Tris-buffered saline containing 0.2% Tween-20 buffer and extracted with 1 ml absolute ethanol overnight at room temperature. The ethanol supernatants were transferred to liquid scintillation fluid (5 ml) and counted. Control tubes, used in assessing HAP adsorption of free steroid, contained HAP and the same buffer constituents, without addition of the membranes. Non-specific binding was assayed in the membranes using the same amount of radioactive ligand plus 200-fold molar excess of unlabeled diethylstilbestrol (DES) (Sigma-Aldrich). Specific binding was calculated by subtracting non-specific from total binding.
# ERK1/2 phosphorylation [3] = test: Phosphorylation of ERK1/2 in ERKO CLM and non-CLM preparations; assay type: biochemical, mouse; details: for phosphorylation of ERK1/2: 30 minutes
# Protocol: Phosphorylation of ERK1/2 in CLM and non-CLM preparations. Phosphorylation of ERK1/2 in ERKO CLM and non-CLM preparations was examined following the method of Liu et al. (Liu, 1997), except that basal medium Eagle (BME) was used in the place of MEM. Nine parts of CLM or non-CLM preparations were mixed with one part of 10×BME, pH 7.4 containing BSA 800 μg/ml, 10 mM NaF, 2 mM Na3VO4, leupeptin 100 μg/ml, soybean trypsin inhibitor 100 μg/ml, 10 mM MgCl2, and 1 mM ATP. […] Cell Signaling Technology, Beverly, Mass.) for 30 minutes prior to pulsing them with the appropriate estradiol. […] (Singh, 1999; and Singh, 2000).
# ERK1/2 phosphorylation [4] = test: ERK1/2 phosphorylation in post-nuclear supernatant (PNS), cell-free system; assay type: biochemical, mouse; details: for phosphorylation of ERK1 and ERK2: P7 wild-type neocortical PNS, 10 minutes, 37° C.
# Excerpt: Isolation of post-nuclear supernatant (PNS). To increase the yield of ER-X and to test in a cell-free system whether the presence of ER-α is inhibitory for ERK activation, as had been shown previously in neocortical cultures (Singh, 2000), PNS, a cell-free system which contains all the cell organelles except the nucleus, was studied. PNS was isolated from P7 wild-type and ERKO neocortices according to the method of Smart et al. (Smart, 1995). Three to four P7 wild-type and ERKO neocortices were homogenized using a teflon homogenizer in 1 ml of 20 mM Tricine, pH 7.8 buffer, containing 1 mM EDTA, 0.25M sucrose, 10 μg/ml aprotinin and 1 μg/ml leupeptin. The homogenate was centrifuged at 1000×g at 4° C. for 10 minutes. The supernatant obtained is the PNS. The pellet was resuspended in 500 μl of the homogenization buffer, re-centrifuged, and the PNS obtained was pooled with the first PNS. ERKO and wild-type PNS were mixed with 10X phosphorylation buffer, and the MAPK assay was performed as described above.
# ERK1/2 phosphorylation [5] = test: ERK1/2 phosphorylation in neocortical explant cultures (Western immunoblot); assay type: cell-based, mouse; details: wild-type neocortical cultures
# Protocol: Neocortical cultures. Organotypic explant cultures, obtained from 360 pm hemi-coronal slices of the frontal and cingulate neocortex of P2 wild-type and ERKO mice (day of birth =P1), were explanted onto collagen-coated, poly-D-lysine pre-coated coverslips and maintained in roller tube culture with gonadal steroid-deficient (gelding serum) and phenol red-free nutrient medium, as previously described (Singh, 1999; and Singh, 2000). The nutrient medium was supplemented with 17β-estradiol (2 nM; Sigma-Aldrich, St. Louis, Mo.) for one week, in order to optimize the development of CNS cultures from estrogen target regions. […]
# Antibody binding to protein was detected using a secondary antibody conjugated to horseradish peroxidase (1:40,000; Pierce Chemical Company, Rockford, Ill.), and visualized autoradiographically on film using enzyme-linked chemiluminescence (ECL®; Amersham Pharmacia Biotech) (Singh et, 1999; and Singh, 2000). All blots were stripped and re-probed with the appropriate antibody to verify equal loading of protein across lanes and were analyzed densitometrically. […]
# [6] = system: estrogen-binding protein (ER-X); test: DES-sensitive 3H-estradiol binding in CLM preparations and lysates; set-up: species or system mouse; details: unlabeled competitor in excess
# Protocol: Caveolar-like membrane (CLM) preparation. Membrane fractions were prepared by adapting the detergent-free method of Smart et al. (Smart, 1995). Briefly, pools of 40-50 P7 ERKO neocortices were homogenized in 20 mM Tricine, pH 7.8 buffer, containing 1 mM EDTA, 0.25M sucrose and 1 mM dithiothreitol (TESD buffer), then centrifuged at 1000×g at 4° C. for 10 minutes. The pellet was resuspended in TESD buffer, re-centrifuged, and the supernatants pooled. The combined supernatants were subjected to Percoll® gradient fractionation in the same buffer to isolate the plasma membrane fraction. In some binding experiments (indicated below), Percoll® purified plasma membranes were used without further fractionation. For preparation of CLMs, plasma-membranes were sonicated and further separated by centrifugation on a linear 20% to 10% OptiPrep (iodixanol) gradient (Nycomed Pharma AS, Oslo, Norway). Based upon their light buoyant density, CLMs were separated and purified from non-CLMs using two OptiPrep density gradients. […] Electrophoretically separated CLMs on PVDF membranes were probed with antibodies specific for ER-α ([…], UBI; MC20, Santa Cruz), ER-β (Zymed), flotillin (BD Transduction Labs) and other caveolar-resident proteins (PKC-α and PKC-γ, BD Transduction Labs) and non-caveolar-resident proteins (paxillin, BD Transduction Labs). Estrogen binding assay. Duplicate aliquots of 1 mg each of protein lysate from ERKO P7 neocortex or wild-type adult uterus were pre-cleared for 30 minutes using anti-rabbit-IgG-coated magnetic beads (Dynal AS). Pre-cleared protein lysates were immunoprecipitated with anti-ER-α antibodies (6F11, Novocastra; or MC20, Santa Cruz) at 4° C. overnight. […] NEN Life Sciences, Boston, Mass.) at 4° C. for 18 hours. The incubation was terminated by adsorption of the binding sites onto an equal volume of hydroxylapatite (HAP) slurry in TESD buffer. HAP pellets were washed four times with Tris-buffered saline containing 0.2% Tween-20 buffer and extracted with 1 ml absolute ethanol overnight at room temperature. The ethanol supernatants were transferred to liquid scintillation fluid (5 ml) and counted. Control tubes, used in assessing HAP adsorption of free steroid, contained HAP and the same buffer constituents, without addition of the membranes. Non-specific binding was assayed in the membranes using the same amount of radioactive ligand plus 200-fold molar excess of unlabeled diethylstilbestrol (DES) (Sigma-Aldrich). Specific binding was calculated by subtracting non-specific from total binding.
# ERK1/2 phosphorylation [7] = test: Cholesterol depletion: ERK1/2 phosphorylation in neocortical explants pre-treated with Nystatin; assay type: cell-based, mouse; details: P9 wild-type neocortical explants, 50 μg/ml for 1 hour before a 30 minute pulse
# Protocol: Cholesterol depletion. To determine whether disruption of CLMs impairs estrogen activation of the MAPK cascade, neocortical explants were pre-treated on P9 with the sterol binding agent Nystatin (50 μg/ml) (Sigma-Aldrich), a compound used extensively to document the association of growth factor receptors with caveolae/CLMs (Huang, 1999). […] P9 neocortical explants were exposed to Nystatin (50 μg/ml) (Sigma-Aldrich), BDNF (10 ng/ml) or vehicle control (PBS) for 1 hour prior to pulsing with 10 nM 17β-estradiol for 30 minutes in the continued presence of Nystatin, BDNF or vehicle. Explants were then analyzed by Western immunoblot analysis for phospho-ERK expression using antibodies to phosphorylated p44/42 MAP Kinase (ERK1/2, Thr202/Tyr204; Cell Signaling Technology), as previously described (Singh, 1999; and Singh, 2000).
# [8] = 1 μM unlabelled competitor (500-fold molar excess)
compound,measurement,setting,value
C[C@]12CC[C@@H]3c4ccc(O)cc4CC[C@H]3[C@@H]1C[C@@H](I)[C@@H]2O [16α-iodo-17β-estradiol],activation of ERK1/2 by ER-α- or ER-β-selective ligands,ERK1/2 phosphorylation [1],not activated
C[C@]12CC[C@@H]3c4ccc(O)cc4CC[C@H]3[C@@H]1CC[C@H]2O [17α-estradiol],inhibition of binding of 3H-estradiol,[2]; 50 nM unlabelled competitor,markedly inhibited
same,inhibition of binding of 3H-estradiol,[2]; [8],reduced to the non-specific levels
same,phosphorylation of ERK1/2,"ERK1/2 phosphorylation [3]; P7 ERKO neocortical CLMs, 0.1 nM",elicited phosphorylation of ERK1/2
same,phosphorylation of ERK1/2,"ERK1/2 phosphorylation [3]; non-CLM regions of the plasma membrane, 0.1 nM",did not respond
same,phosphorylation of ERK1 and ERK2,ERK1/2 phosphorylation [4]; 0.1 nM,elicited MEK-dependent (U0126) phosphorylation of ERK1 and ERK2
C[C@]12CC[C@@H]3c4ccc(O)cc4CC[C@H]3[C@@H]1CC[C@@H]2O [17β-estradiol],inhibition of binding of 3H-estradiol,[2]; 50 nM unlabelled competitor,markedly inhibited
same,inhibition of binding of 3H-estradiol,[2]; [8],reduced to the non-specific levels
same,concentration range eliciting activation of ERK1/2,ERK1/2 phosphorylation [5],0.1 to 10 nM
same,phosphorylation of ERK1/2,"ERK1/2 phosphorylation [3]; P7 ERKO neocortical CLMs, 10 nM",elicited phosphorylation of ERK1/2
same,phosphorylation of ERK1/2,"ERK1/2 phosphorylation [3]; non-CLM regions of the plasma membrane, 10 nM",did not respond
same,phosphorylation of ERK1 and ERK2,ERK1/2 phosphorylation [4]; 10 nM,significantly less than the levels following exposure to 17α-estradiol; also recorded: elicited MEK-dependent (U0126) phosphorylation of ERK1 and ERK2
"CC/C(=C(/CC)c1ccc(O)cc1)c1ccc(O)cc1 [DES, diethylstilbestrol]",effect on binding of 10 nM 3H-estradiol to P7 ERKO CLMs,[6],suppressed
C[C@@H]1[C@H](O)[C@@H](C)/C=C/C=C/CC/C=C/C=C/C=C/C=C/C(O[C@H]2O[C@H](C)[C@@H](O)[C@H](N)[C@@H]2O)CC2O[C@](O)(CC(O)C(O)CCC(O)CC(O)CC(O)CC(=O)O[C@H]1C)CC(O)C2C(=O)O (stereo partly shown) [Nystatin],effect on ERK1/2 phosphorylation elicited by 17β-estradiol (10 nM) and BDNF,ERK1/2 phosphorylation [7],decreased the ability of both estradiol and BDNF to elicit ERK1/2 phosphorylation
N#CC(=C(/N)Sc1ccccc1N)/C(C#N)=C(\N)Sc1ccccc1N [U0126],effect on estradiol-induced ERK activation,"ERK1/2 phosphorylation [3]; P7 ERKO neocortical CLMs, 10 μM, 30 minutes pre-treatment",inhibited
same,effect on estradiol-induced ERK1/2 phosphorylation,"ERK1/2 phosphorylation [4]; wild-type neocortical PNS, 10 μM",inhibited
O=c1oc2cc(O)ccc2c2oc3cc(O)ccc3c12 [coumestrol],activation of ERK1/2 by ER-α- or ER-β-selective ligands,ERK1/2 phosphorylation [1],not activated
O=c1c(-c2ccc(O)cc2)coc2cc(O)cc(O)c12 [genistein],activation of ERK1/2 by ER-α- or ER-β-selective ligands,ERK1/2 phosphorylation [1],not activated
CC(=O)[C@H]1CC[C@H]2[C@@H]3CCC4=CC(=O)CC[C@]4(C)[C@H]3CC[C@]12C [progesterone],inhibition of binding of 3H-estradiol,[2]; [8],only partially suppressing binding
